Test results from PubChem BioAssay (NCI).
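Following 48 hours of exposure in 96-well plates, responses at five concentrations were used to interpolate endpoints linearly. Abbreviation: GI50, concentration required for 50% inhibition of growth. TGI: concentration producing complete growth inhibition.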

Tests used:
Experiment in all cases: NCI tumour cell line growth inhibition, 48 h
[1] = test system: NCI-H23 lung
[2] = test system: DU-145 prostate
[3] = test system: SN12C renal
[4] = test system: HS 578T breast
[5] = test system: M14 melanoma
[6] = test system: SW-620 colon
[7] = test system: RPMI-8226 leukemia
[8] = test system: EKVX NSCLC
[9] = test system: UACC-257 melanoma
[10] = test system: PC-3 prostate
[11] = test system: MDA-MB-435
[12] = test system: SK-MEL-2 melanoma
[13] = test system: OVCAR-8 ovarian
[14] = test system: COLO 205 colon
[15] = test system: NCI/ADR-RES ovarian
[16] = test system: MDA-MB-231 breast
[17] = test system: UACC-62 melanoma
[18] = test system: BT-549 breast
[19] = test system: OVCAR-4 ovarian
[20] = test system: HL-60(TB) leukemia
[21] = test system: SR leukemia
[22] = test system: NCI-H460 lung
[23] = test system: UO-31 renal
[24] = test system: TK-10 renal
[25] = test system: HT29 colon
[26] = test system: HCC-2998 colon
[27] = test system: OVCAR-5 ovarian
[28] = test system: SNB-19 CNS
[29] = test system: A549 NSCLC
[30] = test system: U251 CNS
[31] = test system: SF-268 CNS
[32] = test system: SK-MEL-5 melanoma
[33] = test system: NCI-H226 lung
[34] = test system: MOLT-4 leukemia
[35] = test system: MCF7 breast
[36] = test system: CAKI-1 renal
[37] = test system: HCT-116 colon
[38] = test system: NCI-H522 lung
[39] = test system: SK-MEL-28 melanoma
[40] = test system: HCT-15 colon
[41] = test system: T-47D breast
[42] = test system: RXF 393 renal
[43] = test system: IGROV1 ovarian
[44] = test system: SK-OV-3 ovarian
[45] = test system: KM12 colon
[46] = test system: A498 renal
[47] = test system: HOP-92 NSCLC
[48] = test system: K-562 leukemia
[49] = test system: OVCAR-3 ovarian
[50] = test system: ACHN renal
[51] = test system: SNB-75 CNS
[52] = test system: SF-295 CNS
[53] = test system: MALME-3M melanoma
[54] = test system: HOP-62 NSCLC
[55] = test system: 786-0 renal
[56] = test system: LOX IMVI melanoma
[57] = test system: CCRF-CEM leukemia
[58] = test system: SF-539 CNS
[59] = test system: MDA-N

CCN(CC)CCS(=O)c1c2cc(OC)ccc2nc2ccc(OC)cc12 (stereo unspecified) was tested, and the TGI [1] was 41.3 µM, the TGI [2] was 4.04 µM and the TGI [3] was 9.64 µM. For the same compound, the TGI [4] was 29.1 µM, the TGI [5] was 26.3 µM and the TGI [6] was > 21.9 µM. It also gave a TGI [7] of 7.11 µM, a TGI [8] of 30.8 µM and a TGI [9] of 17.6 µM. For the same compound, the TGI [10] was 26.9 µM, the TGI [11] was 26.6 µM and the TGI [12] was 40.3 µM. For the same compound, the TGI [13] was 21 µM, the TGI [14] was 3.99 µM and the TGI [15] was 52.6 µM. For the same compound, the TGI [16] was 28.4 µM, the TGI [17] was 36.8 µM and the TGI [18] was 31.2 µM. The TGI [19] was 29.7 µM, the TGI [20] was > 100 µM and the TGI [21] was > 23.7 µM. The TGI [22] was > 82.2 µM, the TGI [23] was 5.43 µM and the TGI [24] was 11.7 µM. The TGI [25] was 12 µM, the TGI [26] was 40.7 µM and the TGI [27] was 36.1 µM. For the same compound, the TGI [28] was 72 µM, the TGI [29] was 55.3 µM and the TGI [30] was > 60.6 µM. For the same compound, the TGI [31] was 23.5 µM, the TGI [32] was 32.3 µM and the TGI [33] was 39.5 µM. The TGI [34] was > 21.2 µM, the TGI [35] was > 24.9 µM and the TGI [36] was 23.9 µM. For the same compound, the TGI [37] was 4.55 µM, the TGI [38] was 1.38 µM and the TGI [39] was 34.4 µM. It also gave a TGI [40] of 16.6 µM, a TGI [41] of 4.04 µM and a TGI [42] of 24.6 µM. The TGI [43] was 8.52 µM, the TGI [44] was 40.9 µM and the TGI [45] was > 57.5 µM. The TGI [46] was 33.1 µM, the TGI [47] was > 24.3 µM and the TGI [48] was > 25.7 µM. The TGI [49] was 15.6 µM, the TGI [50] was 5.44 µM and the TGI [51] was 36 µM. It also gave a TGI [52] of 44.2 µM, a TGI [53] of 2.51 µM and a TGI [54] of 44.8 µM. For the same compound, the TGI [55] was 4.35 µM, the TGI [56] was > 42.9 µM and the TGI [57] was > 25.6 µM. It also gave a TGI [58] of 6 µM.
CC(C)(C)N1NC1C1NN1C(C)(C)C (stereo unspecified) was tested, and the TGI [1] was > 100 µM, the TGI [2] was > 100 µM and the TGI [3] was > 100 µM. For the same compound, the TGI [4] was > 100 µM, the TGI [5] was > 100 µM and the TGI [6] was > 100 µM. The TGI [7] was > 100 µM, the TGI [8] was > 100 µM and the TGI [9] was > 100 µM. For the same compound, the TGI [10] was > 100 µM, the TGI [11] was > 100 µM and the TGI [12] was > 100 µM. For the same compound, the TGI [13] was > 100 µM, the TGI [14] was > 100 µM and the TGI [15] was > 100 µM. For the same compound, the TGI [16] was > 100 µM, the TGI [17] was > 100 µM and the TGI [19] was > 100 µM. For the same compound, the TGI [21] was > 100 µM, the TGI [22] was > 100 µM and the TGI [23] was > 100 µM. The TGI [24] was > 100 µM, the TGI [25] was > 100 µM and the TGI [26] was > 100 µM. The TGI [27] was > 100 µM, the TGI [28] was > 100 µM and the TGI [29] was > 100 µM. The TGI [30] was > 100 µM, the TGI [31] was > 100 µM and the TGI [32] was > 100 µM. For the same compound, the TGI [33] was > 100 µM, the TGI [59] was > 100 µM and the TGI [34] was > 100 µM. For the same compound, the TGI [35] was > 100 µM, the TGI [36] was > 100 µM and the TGI [37] was > 100 µM. The TGI [38] was > 100 µM, the TGI [39] was > 100 µM and the TGI [40] was > 100 µM. For the same compound, the TGI [41] was > 100 µM, the TGI [42] was > 100 µM and the TGI [43] was > 100 µM. The TGI [44] was > 100 µM, the TGI [45] was > 100 µM and the TGI [46] was > 100 µM. The TGI [47] was > 100 µM, the TGI [48] was > 100 µM and the TGI [49] was > 100 µM. The TGI [50] was > 100 µM, the TGI [51] was > 100 µM and the TGI [52] was > 100 µM. The TGI [53] was > 100 µM, the TGI [54] was > 100 µM and the TGI [55] was > 100 µM. The TGI [56] was > 100 µM, the TGI [57] was > 100 µM and the TGI [58] was > 100 µM.
C=C1C(=O)O[C@H]2[C@H]1CC/C(Cn1cc(-c3ccccc3)nn1)=C\CC[C@@]1(C)O[C@@H]21 gave a GI50 [1] of 5.38 µM, a TGI [1] of 12.4 µM and a GI50 [2] of 2.19 µM. The TGI [2] was 7.92 µM, the GI50 [3] was 4.5 µM and the TGI [3] was 11.5 µM. For the same compound, the GI50 [4] was 9.78 µM, the TGI [4] was 29.6 µM and the GI50 [5] was 1.78 µM. For the same compound, the TGI [5] was 7.6 µM, the GI50 [6] was 1.5 µM and the TGI [6] was 6.43 µM. It also gave a GI50 [7] of 1.71 µM, a TGI [7] of 11.1 µM and a GI50 [8] of 6.87 µM. It also gave a TGI [8] of 13.3 µM, a GI50 [9] of 3.78 µM and a TGI [9] of 10.5 µM. The GI50 [10] was 5.65 µM, the TGI [10] was 12 µM and the GI50 [11] was 2.37 µM. The TGI [11] was 9.18 µM, the GI50 [12] was 5.5 µM and the TGI [12] was 12.5 µM. For the same compound, the GI50 [13] was 2.31 µM, the TGI [13] was 8.88 µM and the GI50 [14] was 1.08 µM. For the same compound, the TGI [14] was 2.36 µM, the GI50 [15] was 6.17 µM and the TGI [15] was 13.7 µM. The GI50 [16] was 2 µM, the TGI [16] was 7.89 µM and the GI50 [17] was 1.87 µM. The TGI [17] was 8.22 µM, the GI50 [18] was 2.65 µM and the TGI [18] was 8.97 µM. For the same compound, the GI50 [19] was 3.22 µM, the TGI [19] was 12.1 µM and the GI50 [20] was 1.49 µM. It also gave a TGI [20] of 5.64 µM, a GI50 [21] of 1.06 µM and a TGI [21] of 6.44 µM. For the same compound, the GI50 [22] was 7.74 µM, the TGI [22] was 23.3 µM and the GI50 [23] was 0.87 µM. It also gave a TGI [23] of 1.96 µM, a GI50 [24] of 1.21 µM and a TGI [24] of 4.53 µM. It also gave a GI50 [25] of 1.79 µM, a TGI [25] of 6.3 µM and a GI50 [26] of 6.16 µM. It also gave a TGI [26] of 13 µM, a GI50 [27] of 5.7 µM and a TGI [27] of 13.3 µM. It also gave a GI50 [28] of 7.87 µM, a TGI [28] of 17 µM and a GI50 [29] of 5.88 µM. For the same compound, the TGI [29] was 13.8 µM, the GI50 [30] was 7.96 µM and the TGI [30] was 15.4 µM. The GI50 [31] was 5.63 µM, the TGI [31] was 13.4 µM and the GI50 [32] was 7.32 µM. The TGI [32] was 13.9 µM, the GI50 [33] was 4.6 µM and the TGI [33] was 11.2 µM. For the same compound, the GI50 [34] was 1.29 µM, the TGI [34] was 3.53 µM and the GI50 [35] was 1.08 µM. It also gave a TGI [35] of 3.32 µM, a GI50 [36] of 1.28 µM and a TGI [36] of 4.83 µM. It also gave a GI50 [37] of 1.17 µM, a TGI [37] of 2.7 µM and a GI50 [38] of 0.811 µM. The TGI [38] was 1.66 µM, the GI50 [39] was 1.06 µM and the TGI [39] was 2.48 µM. It also gave a GI50 [40] of 0.769 µM, a TGI [40] of 1.68 µM and a GI50 [41] of 1.3 µM. It also gave a TGI [41] of 3.94 µM, a GI50 [42] of 1.55 µM and a TGI [42] of 4.22 µM. For the same compound, the GI50 [43] was 6.95 µM, the TGI [43] was 14.9 µM and the GI50 [44] was 9.95 µM. The TGI [44] was 17.9 µM, the GI50 [45] was 8.48 µM and the TGI [45] was 18.7 µM. The GI50 [46] was 7.8 µM, the TGI [46] was 15 µM and the GI50 [47] was 1.42 µM. The TGI [47] was 3.6 µM, the GI50 [48] was 1.76 µM and the TGI [48] was 8.49 µM. The GI50 [49] was 1.4 µM, the TGI [49] was 4.38 µM and the GI50 [50] was 0.941 µM. It also gave a TGI [50] of 2.46 µM, a GI50 [51] of 6.21 µM and a TGI [51] of 13 µM. The GI50 [52] was 7.88 µM, the TGI [52] was 15.4 µM and the GI50 [53] was 1.17 µM. For the same compound, the TGI [53] was 2.84 µM, the GI50 [54] was 7.41 µM and the TGI [54] was 15.1 µM. For the same compound, the GI50 [55] was 2.63 µM, the TGI [55] was 8.79 µM and the GI50 [56] was 0.808 µM. For the same compound, the TGI [56] was 1.69 µM, the GI50 [57] was 0.992 µM and the TGI [57] was 4.95 µM. It also gave a GI50 [58] of 2.01 µM and a TGI [58] of 7.18 µM.
